Here are results for 2 molecules from ChEMBL document CHEMBL3046894, “Synthesis and Herbicidal Activity of Pyrimidinyl Salicylic and Thiosalicylic Acids” (J Pestic Sci, 1996).

Data set [1] concerns Xanthium strumarium. The data set can be described thus: Post-emergence herbicidal activity against Xanthium strumarium (cocklebur) assessed as mortality at 6.3 g a.i/10 a applied 11 days after germination as foliar spray. Format: functional. As to conditions: 264 h.
The subject of data set [2] is Persicaria nodosa. The experiment in a line: Post-emergence herbicidal activity against Persicaria nodosa assessed as growth inhibition at 25 g a.i/10 a applied 11 days after germination as foliar spray. Format: functional, organism-based.
Data set [3] relates to Xanthium strumarium. The experiment in a line: Pre-emergence herbicidal activity against Xanthium strumarium (cocklebur) assessed as mortality at 1.6 g a.i/10 a. Particulars: Xanthium strumarium, pre-emergence. In kind it is functional.
Data set [4] deals with Ipomoea lacunosa. The experiment in a line: Pre-emergence herbicidal activity against Ipomoea lacunosa assessed as mortality at 6.3 g a.i/10 a. Format: functional. Particulars: Ipomoea lacunosa, pre-emergence.
For data set [5], the system named is Glycine max. The experiment in a line: Pre-emergence phytotoxicity against Glycine max (soybean) assessed as mortality at 6.3 g a.i/10 a. In kind it is organism-based. As to conditions: in vivo, other.
The test system of data set [6] is Cyperus iria. The data set can be described thus: Pre-emergence herbicidal activity against Cyperus iria assessed as growth inhibition at 25 g a.i/10 a. In kind it is functional, organism-based.
The test system of data set [7] is Xanthium strumarium. The data set can be described thus: Pre-emergence herbicidal activity against Xanthium strumarium (cocklebur) assessed as mortality at 6.3 g a.i/10 a. Format: functional. Particulars: Xanthium strumarium, pre-emergence.
Data set [8] concerns Glycine max. The data set can be described thus: Pre-emergence phytotoxicity against Glycine max (soybean) assessed as mortality at 1.6 g a.i/10 a. Particulars: in vivo, other. Format: organism-based.
Data set [9] has as its system Chenopodium album. The experiment in a line: Pre-emergence herbicidal activity against Chenopodium album assessed as growth inhibition at 25 g a.i/10 a. In kind it is functional, organism-based.
The subject of data set [10] is Zea mays. The data set can be described thus: Post-emergence phytotoxicity against Zea mays (maize) assessed as mortality at 1.6 g a.i/10 a applied 11 days after germination as foliar spray. Format: organism-based. As to conditions: in vivo, other, 264 h.
For data set [11], the system named is Abutilon theophrasti. The experiment in a line: Pre-emergence herbicidal activity against Abutilon theophrasti (velvetleaf) assessed as mortality at 6.3 g a.i/10 a. Format: functional. As to conditions: Abutilon theophrasti, pre-emergence.
Data set [12] relates to Amaranthus retroflexus. The experiment in a line: Post-emergence herbicidal activity against Amaranthus retroflexus assessed as growth inhibition at 25 g a.i/10 a applied 11 days after germination as foliar spray. Format: functional, organism-based.
Data set [13] concerns Ipomoea lacunosa. The experiment in a line: Pre-emergence herbicidal activity against Ipomoea lacunosa assessed as mortality at 1.6 g a.i/10 a. Format: functional. As to conditions: Ipomoea lacunosa, pre-emergence.
In data set [14] the test system is Echinochloa crus-galli. The experiment in a line: Post-emergence herbicidal activity against Echinochloa crus-galli (barnyard grass) assessed as growth inhibition at 25 g a.i/10 a applied 11 days after germination as foliar spray. Format: functional, organism-based.
The test system of data set [15] is Gossypium hirsutum. The experiment in a line: Post-emergence phytotoxicity against Gossypium hirsutum (cotton) assessed as mortality at 6.3 g a.i/10 a applied 11 days after germination as foliar spray. Format: organism-based. As to conditions: in vivo, other, 264 h.
The test system of data set [16] is Gossypium hirsutum. The experiment in a line: Post-emergence phytotoxicity against Gossypium hirsutum (cotton) assessed as mortality at 1.6 g a.i/10 a applied 11 days after germination as foliar spray. In kind it is organism-based. As to conditions: in vivo, other, 264 h.
For data set [17], the system named is Digitaria sanguinalis. The data set can be described thus: Pre-emergence herbicidal activity against Digitaria sanguinalis (hairy crabgrass) assessed as growth inhibition at 25 g a.i/10 a. Format: functional, organism-based.
Data set [18] relates to Persicaria nodosa. The experiment in a line: Pre-emergence herbicidal activity against Persicaria nodosa assessed as growth inhibition at 25 g a.i/10 a. Format: functional, organism-based.
Data set [19] deals with Cyperus iria. The experiment in a line: Post-emergence herbicidal activity against Cyperus iria assessed as growth inhibition at 25 g a.i/10 a applied 11 days after germination as foliar spray. In kind it is functional, organism-based.
For data set [20], the system named is Chenopodium album. The data set can be described thus: Post-emergence herbicidal activity against Chenopodium album assessed as growth inhibition at 25 g a.i/10 a applied 11 days after germination as foliar spray. In kind it is functional, organism-based.
Data set [21] concerns Xanthium strumarium. The experiment in a line: Post-emergence herbicidal activity against Xanthium strumarium (cocklebur) assessed as mortality at 1.6 g a.i/10 a applied 11 days after germination as foliar spray. In kind it is functional. As to conditions: 264 h.
The subject of data set [22] is Abutilon theophrasti. The experiment in a line: Pre-emergence herbicidal activity against Abutilon theophrasti (velvetleaf) assessed as mortality at 1.6 g a.i/10 a. Format: functional. As to conditions: Abutilon theophrasti, pre-emergence.
Data set [23] relates to Glycine max. The data set can be described thus: Post-emergence phytotoxicity against Glycine max (soybean) assessed as mortality at 1.6 g a.i/10 a applied 11 days after germination as foliar spray. Format: organism-based. As to conditions: in vivo, other, 264 h.
The test system of data set [24] is Zea mays. The data set can be described thus: Post-emergence phytotoxicity against Zea mays (maize) assessed as mortality at 6.3 g a.i/10 a applied 11 days after germination as foliar spray. In kind it is organism-based. Particulars: in vivo, other, 264 h.
Data set [25] concerns Echinochloa crus-galli. The experiment in a line: Pre-emergence herbicidal activity against Echinochloa crus-galli (barnyard grass) assessed as mortality at 6.3 g a.i/10 a. In kind it is functional. Particulars: Echinochloa crus-galli, pre-emergence.
Data set [26] deals with Amaranthus retroflexus. The experiment in a line: Pre-emergence herbicidal activity against Amaranthus retroflexus assessed as growth inhibition at 25 g a.i/10 a. In kind it is functional, organism-based.
The subject of data set [27] is Digitaria sanguinalis. The experiment in a line: Post-emergence herbicidal activity against Digitaria sanguinalis (hairy crabgrass) assessed as growth inhibition at 25 g a.i/10 a applied 11 days after germination as foliar spray. Format: functional, organism-based.
The test system of data set [28] is Glycine max. The data set can be described thus: Post-emergence phytotoxicity against Glycine max (soybean) assessed as mortality at 6.3 g a.i/10 a applied 11 days after germination as foliar spray. In kind it is organism-based. As to conditions: in vivo, other, 264 h.
Data set [29] concerns Echinochloa crus-galli. The experiment in a line: Pre-emergence herbicidal activity against Echinochloa crus-galli (barnyard grass) assessed as mortality at 1.6 g a.i/10 a. As to conditions: Echinochloa crus-galli, pre-emergence. Format: functional.
Data set [30] relates to Echinochloa crus-galli. The experiment in a line: Pre-emergence herbicidal activity against Echinochloa crus-galli (barnyard grass) assessed as growth inhibition at 25 g a.i/10 a. In kind it is functional, organism-based.
Data set [31] has as its system Gossypium hirsutum. The data set can be described thus: Pre-emergence phytotoxicity against Gossypium hirsutum (cotton) assessed as mortality at 6.3 g a.i/10 a. Format: organism-based. As to conditions: in vivo, other.
A short description of data set [32]: Pre-emergence phytotoxicity against Zea mays (maize) assessed as mortality at 1.6 g a.i/10 a. As to conditions: in vivo, 1.6 g a.i/10 a, read-out: mortality. Format: organism-based.
Data set [33] relates to Glycine max. The experiment in a line: Pre-emergence phytotoxicity against Glycine max (soybean) assessed as mortality at 200 g a.i/10 a. Format: organism-based. Particulars: in vivo, other.
The test system of data set [34] is Abutilon theophrasti. The experiment in a line: Pre-emergence herbicidal activity against Abutilon theophrasti (velvetleaf) assessed as mortality at 200 g a.i/10 a. In kind it is functional.
Data set [35] relates to Abutilon theophrasti. The experiment in a line: Pre-emergence herbicidal activity against Abutilon theophrasti (velvetleaf) assessed as mortality at 100 g a.i/10 a. Format: functional.
A short description of data set [36]: Pre-emergence phytotoxicity against Glycine max (soybean) assessed as mortality at 100 g a.i/10 a. In kind it is organism-based. Particulars: in vivo.
In data set [37] the test system is Xanthium strumarium. The experiment in a line: Pre-emergence herbicidal activity against Xanthium strumarium (cocklebur) assessed as mortality at 200 g a.i/10 a. In kind it is functional, organism-based.
The test system of data set [38] is Echinochloa crus-galli. The experiment in a line: Pre-emergence herbicidal activity against Echinochloa crus-galli (barnyard grass) assessed as mortality at 100 g a.i/10 a. Format: functional.
Data set [39] has as its system Xanthium strumarium. The data set can be described thus: Pre-emergence herbicidal activity against Xanthium strumarium (cocklebur) assessed as mortality at 100 g a.i/10 a. Format: functional.
Data set [40] deals with Echinochloa crus-galli. The data set can be described thus: Pre-emergence herbicidal activity against Echinochloa crus-galli (barnyard grass) assessed as mortality at 200 g a.i/10 a. In kind it is functional, organism-based.
In data set [41] the test system is Ipomoea lacunosa. The experiment in a line: Pre-emergence herbicidal activity against Ipomoea lacunosa assessed as mortality at 200 g a.i/10 a. Format: functional.
In data set [42] the test system is Ipomoea lacunosa. The experiment in a line: Pre-emergence herbicidal activity against Ipomoea lacunosa assessed as mortality at 100 g a.i/10 a. In kind it is functional.

Each structure is given as a SMILES string. Active and inactive are the calls of the source. The rule behind the calls is not given here.

Broadly, the mortality is the percentage killed. Regarding `COC(=O)c1cccc(Oc2nc(OC)cc(OC)n2)c1C(=O)O`, the mortality at 63 g/ha in data set [1], in data set [4], in [7], in data set [11] and in [25] was under 5% each time. In addition, the “growth inhibition (GI)” value in [2], in [6], in [9], in data set [12], in data set [14] and in [17] was “Active” in each case. Besides, the “growth inhibition (GI)” value in data set [18], in [19], in [20], in data set [26] and in data set [27] was “Active” each time. Moreover, the mortality at 16 g/ha in [3], in [13], in data set [21], in data set [22] and in [29] was under 5% throughout. Also, the Activity entry in data set [5] is “Non-toxic”; in data set [8] it was “Non-toxic”; in [10], “Toxic”; in data set [15] it was “Toxic”; in data set [16], “Toxic”; in data set [23], “Toxic”. In addition, the Activity result in data set [24] is reported as “Toxic”; in data set [28], “Toxic”; in data set [31], “Non-toxic”. Also, the “growth inhibition (GI)” value in [30] is “inactive”. Moreover, the mortality in [32] is under 5%.

Turning to `CN(C)C(=O)Nc1cccc(C(F)(F)F)c1` [FLUOMETURON], the Activity entry in data set [33] was “Toxic”. Also, the mortality at 2000 g/ha in data set [34] and in data set [41] was under 5% each time. The mortality at 1000 g/ha in data set [35], in [38], in data set [39] and in data set [42] was under 5% in each case. For the same molecule, the mortality in [36] was under 5%. Also, the result in data set [37] was inactive. Further, the outcome in [40] was Active.
